Laboratory results from patent US10882863B2, “Compounds for reducing c-Myc in c-Myc overexpressing cancers background” (The Trustees of Columbia University in the City of New York, priority 2016, dated 2021).
Like-named read-outs stand apart in the source and are kept apart here.

Key:
phosphorylation of 4EBP1 [1] = experiment: Western blot of phosphorylated 4EBP1 in GCB-DLBCL lymphoma cell line; format: cell-based; conditions: 12 hours, 15 and 20 uM
Procedure: (§1) Western blot was performed on whole protein extract from cultured cells under specified treatment conditions, most often for 24 hours. Western blotting was performed according to standard protocols, using the chemiluminescence detection system from Thermo Scientific. The primary antibodies were purchased from Cell Signaling Technology unless specified otherwise, and were against these proteins: 4EBP1, phos-4EBP1, S6K, phos-S6K, Bcl2, Bcl-xL, PARP, c-myc, B-catenin, P-4EBP1 (S65), P-4EBP1 (T70). Signals of beta-actin and GAPDH were used as loading control. Goat anti-rabbit or anti-mouse secondary antibodies were purchased from Santa Cruz Biotechnology.
(§2) FIG. 6. […] Protein extracts were processed for Western blot using antibodies against c-Myc, B-Catenin, phosphorylated 4EBP1, total 4EBP1, P-p70S6K, P70S6K, PARP and beta actin.

c-Myc [2] = experiment: Western blot of c-Myc level in LY7 (GCB-DLBCL) cells; format: cell-based; conditions: for reduction in c-Myc (Western blot): LY-7, 25 uM, 6 hours
Procedure: as §1
(§3) The lymphoma cell lines LY10 and LY7 were treated with PF4800567 (PF), Cal-101 (Cal), TGR-1202 (TG) and CUX-03166 as single agents for 6 hours all at 25 uM concentrations. Protein extracts were processed for Western blot using antibodies against c-Myc, B-Catenin, phosphorylated 4EBP1, total 4EBP1, and beta actin.
as §2

[3] = test system: Z-138 (mantle cel lymphoma, MCL) cells; experiment: Cell Titer Glo viability, Z-138 mantle cell lymphoma cells; format: cell-based; conditions: Homo sapiens; Z-138, 25 uM, 24 hours
Procedure: (§4) Cytotoxicity was performed on cultured cells using Cell Titer Glo, as previously described. Experiments were carried out in 96-well plates, with each treatment in triplicate. Samples were taken at typically 24 hours, 48 hours, and/or 72 hours after treatment, as indicated. Cytotoxicity was expressed by the decreasing percentage of live cells in each treatment relative to the untreated control from the same experiment, as a function of time. IC50 (half the maximal inhibitory concentration) for each cell line was calculated using the CalcuSyn Version 2.0 software (Biosoft).
(§5) CUX-0404A reduces viability of OCI-LY7 cells (germinal center diffuse large B cell lymphoma, GCB-DLBCL), see FIG. 4. The lymphoma cell line LY7 was treated with CUX-0404A for 24 hours (dark circle), 48 hours (light circle) or CUX0404B for 24 hours (dark square) or 48 hours (light square). Viability was determined similar to that for FIG. 1. At 15 uM concentrations, viability of cells dropped to 60% at 24 hours, ˜42% at 48 hours, At 25 uM concentrations, viability dropped to 0% at 24 hours. FIG. 5. CUX-0404A reduces viability of Z-138 (mantle cel lymphoma, MCL) cells more potently than TG-1202. […] Viability was determined similar to that for FIG. 1. At 25 uM concentrations, viability of cells dropped to 20% for the CUX-0404A treatment as compared to 60% for TGR-1202

LY7 cells = experiment: Cell Titer Glo viability, lymphoma cell line LY7 (OCI-LY7, GCB-DLBCL); format: cell-based; conditions: for viability at 15 µM: LY7, 15 uM; for viability at 25 µM: LY7, 25 uM
Procedure: as §4
The lymphoma cell line LY7 was treated with CUX-03166 for 24 hr (diamond), 48 hours (square) and 72 hours (triangle). Viability was determined similar to that for Example 2. […] At 25 uM concentrations, viability dropped to 0% at 24 hours.
as §5

LY10 cells = experiment: Cell Titer Glo viability, lymphoma cell line LY10; format: cell-based; conditions: for viability at 50 µM: LY10, 50 uM
Procedure: as §4
The lymphoma cell line LY10 was treated with CUX-03166 (′166 compound) for 24 hours, 48 hours and 72 hours. Cells were collected from the treatment group and the vehicle treated negative control. Viable cells were quantitated by the Cell-Titer Glo assay from Promega. Viable cells in the treated cells were expressed as a percentage of the negative control. […] At a concentration of 50 uM, viability of cells drop to 0% just at 24 hours of treatment. Cells were also treated with Cal-101 and TGR-1202 and viability was determined at 24 hr. For lower concentrations of 5 μm and 15 μM, viability dropped to ˜80% for both treatments. However, as concentrations increased up to 50 μM, viability remained at ˜80% for Cal-101 and modestly dropped to ˜65% for TGR-1202, as shown in FIG. 1.

CK1epsilon = target: T1, CK1epsilon (Homo sapiens, UniProt P49674); experiment: CK1ε kinase activity assay (radioisotope filtration binding assay); format: biochemical; conditions: 10 μM ATP, 3-fold serial dilution from 100 μM
T1 construct: purchased Reaction Biology
T1 sequence (P49674 whole entry): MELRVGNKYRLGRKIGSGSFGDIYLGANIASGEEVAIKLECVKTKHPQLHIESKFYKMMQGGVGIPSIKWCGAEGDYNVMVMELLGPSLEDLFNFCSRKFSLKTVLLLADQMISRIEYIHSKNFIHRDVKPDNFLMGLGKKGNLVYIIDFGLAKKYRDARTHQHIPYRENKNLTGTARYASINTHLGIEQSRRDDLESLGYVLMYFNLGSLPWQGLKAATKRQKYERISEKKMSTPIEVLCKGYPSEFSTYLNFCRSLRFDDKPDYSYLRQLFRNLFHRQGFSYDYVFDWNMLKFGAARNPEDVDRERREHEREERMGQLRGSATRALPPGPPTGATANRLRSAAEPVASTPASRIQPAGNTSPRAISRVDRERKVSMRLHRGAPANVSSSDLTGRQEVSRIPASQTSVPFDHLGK
Procedure: The CK-1 assay was conducted according to the techniques disclosed in Anastassiadis et al, Nat Biotechnol; 29(11): 1039-1045. Briefly, specific kinase/substrate pairs along with required cofactors were prepared in reaction buffer; 20 mM Hepes pH 7.5, 10 mM MgCl2, 1 mM EGTA, 0.02% Brij35, 0.02 mg/ml BSA, 0.1 mM Na3VO4, 2 mM DTT, 1% DMSO (for specific details of individual kinase reaction components see Supplementary Table 2, Anastassiadis et al. 2011). Compounds were delivered into the reaction, followed ˜20 minutes later by addition of a mixture of ATP (Sigma, St. Louis Mo.) and 33P ATP (Perkin Elmer, Waltham Mass.) to a final concentration of 10 μM. Reactions were carried out at room temperature for 120 min, followed by spotting of the reactions onto P81 ion exchange filter paper (Whatman Inc., Piscataway, N.J.). Unbound phosphate was removed by extensive washing of filters in 0.75% phosphoric acid. […] IC50 values and curve fits were obtained using Prism (GraphPad Software). • Substrate: Peptide substrate, [KRRRAL[pS]VASLPGL], 20 μM ATP 10 μM • Reaction: Substrate+[γ-33P]-ATP 33P-Substrate+ADP • Assay: radioisotope filtration binding assay (Reaction Biology). […]

c-Myc [4] = experiment: Western blot of c-Myc level in LY10 cells; format: cell-based; conditions: LY-10, 25 uM, 6 hours, vs vehicle
Procedure: as §1, §3

phosphorylation of 4EBP1 [5] = experiment: Western blot of phosphorylated 4EBP1 in LY10 cells; format: cell-based; conditions: LY-10, 25 uM, 6 hours, vs vehicle
Procedure: as §1, §3

[6] = 24 hours, read-out: viability (viable cells as percentage of negative control)

Compound | viability at 15 µM (LY7 cells; 24 hours) [%] | viability at 15 µM (LY7 cells; 48 hours) [%] | viability at 25 µM (LY7 cells; 24 hours) [%] | reduction in c-Myc (Western blot) (c-Myc [2]) | inhibition of the c-Myc level (Western blot) (c-Myc [4]) | viability at 50 µM (LY10 cells; [6]) [%] | also measured
CC(C)Oc1ccc(-c2nn([C@@H](C)c3nc4ncc(Br)c(N(C)C)c4c(=O)n3-c3ccccc3)c3ncnc(N)c23)cc1F [CUX-0404A] | 60 | ~42 | 0 | – | – | – | inhibition of phosphorylation of 4EBP1 (Western blot) (phosphorylation of 4EBP1 [1]): Potent Inhibition; c-myc level (Western blot) (c-Myc [2]; GCB-DLBCL lymphoma cell line, 12 hours, 20 uM): undetectable; reduction of c-Myc level (Western blot) (c-Myc [2]; GCB-DLBCL lymphoma cell line, 12 hours, 15 and 20 uM, vs vehicle): significantly greater reduction; viability at 25 µM [3]: 20%; viability at 20 µM (LY10 cells; LY10 (as printed in summary), 20 μM, 48 hours): 0%; viability at 25 µM (LY10 cells; LY10 (as printed in summary), 25 μM, 24 hours, read-out: viability): 0%; IC50 (CK1epsilon): 3.21 µM
CC[C@@H](c1nc2cccc(F)c2c(=O)n1-c1ccccc1)n1nc(-c2ccc(OC(C)C)c(F)c2)c2c(N)ncnc21 [CUX-03166] | 40 | 10 | 0 | undetectable level | significantly greater reduction | 0 | increase in potency in inhibiting c-Myc compared to TGR-1202 (c-Myc [2]; LY7 cells, Western blot): near-fiftyfold increase in potency; viability at 15 µM (LY7 cells; 72 hours): ~0%; viability at 25 µM (LY10 cells; LY10, 25 uM, 48 hours, read-out: viability (viable cells as percentage of negative control)): 0%
CC[C@H](Nc1ncnc2[nH]cnc12)c1nc2cccc(F)c2c(=O)n1-c1ccccc1 [Cal-101, reference compound] | – | – | – | – | – | ~80 | –
Nc1ncnc2c1c(COc1cccc(Cl)c1)nn2C1CCOCC1 [PF4800, reference compound] | – | – | – | modest reduction | moderate inhibition | – | inhibition of phosphorylation of 4EBP1 (Western blot) (phosphorylation of 4EBP1 [5]): moderate inhibition
